Our source for the EC50 values is patent US20240166652A1, “MODULATORS OF THE INTEGRATED STRESS PATHWAY” (Calico Life Sciences LLC, priority 2017, published 2024).

The assay deals with ATF4 luciferase reporter in HEK293T cells. The assay can be described thus: ATF4-Luc assay (ATF4 luciferase reporter, tunicamycin-treated HEK293T cells). The format is cell-based, human. The following applies: Homo sapiens, HEK-293T; HEK293T cells carrying the ATF4 luciferase reporter, 1 μg/mL tunicamycin, 7 hours.

For `O=C(COc1ccc(F)cc1)NC12CC(NC(=O)COc3ccc(Cl)c(Cl)c3)(C1)C2` [Compound 532, 2-(3,4-dichlorophenoxy)-N-{3-[2-(4-fluorophenoxy)acetamido]bicyclo[1.1.1]pentan-1-yl}acetamide], the EC50 was < 10 nM.

Regarding `Cc1cccc(COCC(=O)NC23CC(NC(=O)COc4ccc(Cl)c(Cl)c4)(C2)C3)c1` [Compound 162, 2-(3,4-dichlorophenoxy)-N-(3-{2-[(3-methylphenyl)methoxy]-acetamido}bicyclo[1.1.1]pentan-1-yl)acetamide], the half-maximal effective concentration (EC50) lay in the range of 10 to 50 nM.

`COC(=O)c1ncc(OCC(=O)NC23CCC(NC(=O)COc4ccc(Cl)c(F)c4)(CC2)[C@@H](O)C3)cn1` [Compound 622, methyl 5-[2-({(3S)-4-[2-(4-chloro-3-fluorophenoxy)acetamido]-3-hydroxybicyclo[2.2.2]octan-1-yl}amino)-2-oxoethoxy]pyrimidine-2-carboxylate]: the EC50 lay within 500 to 2000 nM.

For `COc1ncc(OCC(=O)NC23CCC(NC(=O)COc4ccc(F)cc4)(CC2)[C@@H](O)C3)cn1` [Compound 631, 2-(4-fluorophenoxy)-N-[(2S)-2-hydroxy-4-{2-[(2-methoxypyrimidin-5-yl)oxy]acetamido}bicyclo[2.2.2]octan-1-yl]acetamide], the EC50 lay in the range of 50 to 250 nM.

Take `O=C(COc1ccc(F)c(OC(F)F)c1)NC12CCC(NC(=O)COc3ccc(Cl)c(F)c3)(CC1)[C@@H](O)C2` [Compound 808, 2-(4-chloro-3-fluorophenoxy)-N-[(2S)-4-{2-[3-(difluoromethoxy)-4-fluorophenoxy]acetamido}-2-hydroxybicyclo[2.2.2]octan-1-yl]acetamide]: the 50% effective concentration (EC50) is < 10 nM.

Regarding `O=C(COc1ccc(Cl)cc1)NC12CC(NCCOc3ccc(Cl)cc3)(C1)C2` [Compound 113, 2-(4-chlorophenoxy)-N-(3-{[2-(4-chlorophenoxy)ethyl]amino}bicyclo-[1.1.1]pentan-1-yl)acetamide], the concentration giving a half-maximal response (EC50) is 50 to 250 nM.

As for `N#Cc1cccc(COCC(=O)NC23CC(NC(=O)COc4ccc(Cl)c(Cl)c4)(C2)C3)c1` [Compound 161, 2-[(3-cyanophenyl)methoxy]-N-{3-[2-(3,4-dichlorophenoxy)acetamido]bicyclo[1.1.1]pentan-1-yl}acetamide], the EC50 lay within 50 to 250 nM.

`O=C(COc1ccc(Cl)c(F)c1)NC12CC(NC(=O)COc3ccnn(CC(F)(F)F)c3=O)(C1)C2` [Compound 309, 2-(4-chloro-3-fluorophenoxy)-N-[3-(2-{[3-oxo-2-(2,2,2-trifluoroethyl)-2,3-dihydropyridazin-4-yl]oxy}acetamido)bicyclo[1.1.1]pentan-1-yl]acetamide]: the EC50 lay within 50 to 250 nM.

Regarding `Cc1ccc(OCC(=O)NC23CCC(NC(=O)COc4ccc5c(C)n[nH]c5c4)(CC2)[C@@H](O)C3)cc1` [Compound 746, N-{(2S)-2-hydroxy-4-[2-(4-methylphenoxy)acetamido]bicyclo[2.2.2]octan-1-yl}-2-[(3-methyl-1H-indazol-6-yl)oxy]acetamide], the 50% effective concentration (EC50) was in the range of 10 to 50 nM.

On to `CS(=O)(=O)c1ccc(OCC(=O)NC23CCC(NC(=O)COc4ccc(OC(F)(F)F)cc4)(CC2)[C@@H](O)C3)cc1F` [Compound 765, 2-[3-fluoro-4-(methanesulfonyl)phenoxy]-N-[(3S)-3-hydroxy-4-{2-[4-(trifluoromethoxy)phenoxy]acetamido}bicyclo[2.2.2]octan-1-yl]acetamide], for which the EC50 was in the range of 250 to 500 nM.

For `O=C(COc1ccc(S(F)(F)(F)(F)F)cc1)NC12CC(NC(=O)COc3ccc(Cl)c(F)c3)(C1)C2` [Compound 219, 2-(4-chloro-3-fluorophenoxy)-N-(3-{2-[4-(pentafluoro-λ^6-sulfanyl)phenoxy]acetamido}bicyclo[1.1.1]pentan-1-yl)acetamide], the EC50 is < 10 nM.

For the molecule `O=C(COc1ccc(C(F)F)cc1)NC12CC(NC(=O)COc3ccc(C(F)F)cc3)(C1)C2` [Compound 389, N,N′-(bicyclo[1.1.1]pentane-1,3-diyl)bis{2-[4-(difluoromethyl)phenoxy]acetamide}], the EC50 is 250 to 500 nM.

As to `O=C(COCc1ccc(C(F)(F)F)nc1)NC12CC(NC(=O)COc3ccc(Cl)c(F)c3)(C1)C2` [Compound 284, 2-(4-chloro-3-fluorophenoxy)-N-[3-(2-{[6-(trifluoromethyl)pyridin-3-yl]methoxy}acetamido)bicyclo[1.1.1]pentan-1-yl]acetamide], the half-maximal effective concentration (EC50) is 10 to 50 nM.

`CC(=O)O[C@@H]1CC2(NC(=O)COc3ccc(Cl)c(F)c3)CCC1(NC(=O)COc1ccc(Cl)c(F)c1)CC2` (single isomer, unassigned) [Compound 449]: the EC50 was in the range of 10 to 50 nM.

Regarding `O=C(COc1ccc(Cl)c(F)c1)NC12CCC(N[C@H](CCOc3ccc(Cl)cc3)C(=O)O)(CC1)C[C@@H]2O` (single isomer, unassigned) [Compound 693], the 50% effective concentration (EC50) fell in the range of 500 to 2000 nM.

For `O=C(Cc1ccc(OC(F)(F)F)cc1)NC12CCC(NC(=O)COc3ccc(Cl)c(F)c3)(CC1)C(O)C2` (centres unmarked) [Compound 340, 2-(4-chloro-3-fluorophenoxy)-N-(2-hydroxy-4-{2-[4-(trifluoromethoxy)phenyl]acetamido}bicyclo[2.2.2]octan-1-yl)acetamide], the EC50 lay within 50 to 250 nM.

With `Cc1ccc(CC(=O)NC23CC(NC(=O)COc4ccc(Cl)c(F)c4)(C2)C3)cn1` [Compound 210, 2-(4-chloro-3-fluorophenoxy)-N-{3-[2-(6-methylpyridin-3-yl)acetamido]bicyclo[1.1.1]pentan-1-yl}acetamide], the EC50 was > 2000 nM.

Consider `O=C(COc1ccc(Cl)c(F)c1)NC12CCC(NC(=O)COc3ccc(F)cc3)(CC1)[C@@H](O)C2` (single isomer, unassigned) [Compound 354], for which the concentration giving a half-maximal response (EC50) was < 10 nM.

`Cc1cc(OCC(=O)NC23CCC(NC(=O)COc4ccc(C(F)(F)F)c(F)c4)(CC2)C[C@@H]3O)ccc1Cl` [Compound 841, 2-(4-chloro-3-methylphenoxy)-N-[(2S)-4-{2-[3-fluoro-4-(trifluoromethyl)phenoxy]acetamido}-2-hydroxybicyclo[2.2.2]octan-1-yl]acetamide]: the 50% effective concentration (EC50) is < 10 nM.

On to `CN1C(=O)C2(NC(=O)COc3ccc(Cl)c(Cl)c3)CCC1(NC(=O)COc1ccc(Cl)c(Cl)c1)CC2` [Compound 599, N,N-(2-methyl-3-oxo-2-azabicyclo[2.2.2]octane-1,4-diyl)bis[2-(3,4-dicholorophenoxy)acetamide]], for which the EC50 fell in the range of 10 to 50 nM.

Regarding `O=C(COc1ccc(Cl)cc1)NC12CCC(NC(=O)COc3ccc(Cl)cc3)(CC1)CC2` [Compound 744, N,N′-(bicyclo[2.2.2]octane-1,4-diyl)bis[2-(4-chlorophenoxy)acetamide]], the 50% effective concentration (EC50) was < 10 nM.

`COc1ncc(OCC(=O)NC23CCC(NC(=O)COc4ccc(Cl)cc4)(CC2)[C@@H](O)C3)cn1` [Compound 635, 2-(4-chlorophenoxy)-N-[(2S)-2-hydroxy-4-{2-[(2-methoxypyrimidin-5-yl)oxy]acetamido}bicyclo[2.2.2]octan-1-yl]acetamide]: the EC50 is 10 to 50 nM.

Regarding `O=C(COc1ccc(F)c(C(F)F)c1)NC12CCC(NC(=O)COc3ccc(Cl)c(F)c3)(CC1)[C@@H](O)C2` [Compound 790, 2-(4-chloro-3-fluorophenoxy)-N-[(2S)-4-{2-[3-(difluoromethyl)-4-fluorophenoxy]acetamido}-2-hydroxybicyclo[2.2.2]octan-1-yl]acetamide], the concentration for a half-maximal effect (EC50) was < 10 nM.

Regarding `O=C(COc1ccc(Cl)c(F)c1)NC12CCC(NC(=O)COc3ccc(Cl)c(F)c3)(CC1)[C@H](O)C2` (single isomer, unassigned) [Compound 298], the EC50 is < 10 nM.

As to `O=C(COc1ccc(C2CC2)nc1)NC12CC(NC(=O)COc3ccc(Cl)c(F)c3)(C1)C2` [Compound 251, 2-(4-chloro-3-fluorophenoxy)-N-(3-{2-[(6-cyclopropylpyridin-3-yl)oxy]acetamido}bicyclo[1.1.1]pentan-1-yl)acetamide], the 50% effective concentration (EC50) fell in the range of 10 to 50 nM.

Consider `O=C(COc1ccc(Cl)c(F)c1)NC12CC(N(CCO)C(=O)COc3ccc(Cl)c(F)c3)(C1)C2` [Compound 190, 2-(4-chloro-3-fluorophenoxy)-N-{3-[2-(4-chloro-3-fluorophenoxy)acetamido]-bicyclo[1.1.1]pentan-1-yl}-N-(2-hydroxyethyl)acetamide], for which the EC50 fell in the range of 500 to 2000 nM.

Take `N#Cc1ccc(OCC(=O)NC23CC(NC(=O)COc4ccc5c(c4)OC(F)(F)O5)(C2)C3)cn1` [Compound 267, 2-[(6-cyanopyridin-3-yl)oxy]-N-(3-{2-[(2,2-difluoro-2H-1,3-benzodioxol-5-yl)oxy]acetamido}bicyclo[1.1.1]pentan-1-yl)acetamide]: the EC50 was in the range of 50 to 250 nM.

`O=C(COc1ccc(Cl)c(Cl)c1)NC12CC(NCC(=O)c3ccc(Cl)cc3)(C1)C2` [Compound 287, N-(3-{[2-(4-chlorophenyl)-2-oxoethyl]amino}bicyclo[1.1.1]pentan-1-yl)-2-(3,4-dichlorophenoxy)acetamide]: the EC50 is 50 to 250 nM.

Consider `Cc1ccc(OCC(=O)NC23CCC(NC(=O)COc4ccc(Cl)c(F)c4)(CC2)C[C@@H]3O)cc1C` [Compound 510, 2-(4-chloro-3-fluorophenoxy)-N-{(3S)-4-[2-(3,4-dimethylphenoxy)acetamido]-3-hydroxybicyclo[2.2.2]octan-1-yl}acetamide], for which the 50% effective concentration (EC50) is < 10 nM.

Take `O=C(COc1cc(F)c2cn[nH]c2c1)NC12CCC(NC(=O)COc3ccc(Cl)cc3)(CC1)[C@@H](O)C2` [Compound 725, 2-(4-chlorophenoxy)-N-[(25)-4-{2-[(4-fluoro-1H-indazol-6-yl)oxy]acetamido}-2-hydroxybicyclo[2.2.2]octan-1-yl]acetamide]: the 50% effective concentration (EC50) is < 10 nM.

As for `O=C(COc1ccc(Cl)c(Cl)c1)NC12CC(NC(=O)COc3ccc(Cl)cc3F)(C1)C2` [Compound 122, 2-(4-chloro-2-fluorophenoxy)-N-{3-[2-(3,4-dichlorophenoxy)acetamido]-bicyclo[1.1.1]pentan-1-yl}acetamide], the concentration giving a half-maximal response (EC50) is < 10 nM.

On to `O=C(/C=C/c1cccc(Cl)c1)NC12CC(NC(=O)COc3ccc(Cl)c(F)c3)(C1)C2` [Compound 350, (2E)-N-{3-[2-(4-chloro-3-fluorophenoxy)acetamido]bicyclo[1.1.1]pentan-1-yl}-3-(3-chlorophenyl)prop-2-enamide], for which the 50% effective concentration (EC50) was 50 to 250 nM.

Broadly, the EC50 is the concentration giving half of the maximal effect.
